From PMC12849875, “CYP4X1/sEH‐Dependent Endocannabinoid Metabolism Drives Fibroblast‐Mediated Immunosuppression to Limit Immunotherapy in Colon Cancer” (Advanced Science, 2025)

Columns and labels:
GPR119 [1] = target: T1, GPR119 (Homo sapiens, UniProt Q8TDV5); assay: cAMP accumulation in heterologous expression system, positive control agonist; type: cell-based
T1 sequence (Q8TDV5 1-335): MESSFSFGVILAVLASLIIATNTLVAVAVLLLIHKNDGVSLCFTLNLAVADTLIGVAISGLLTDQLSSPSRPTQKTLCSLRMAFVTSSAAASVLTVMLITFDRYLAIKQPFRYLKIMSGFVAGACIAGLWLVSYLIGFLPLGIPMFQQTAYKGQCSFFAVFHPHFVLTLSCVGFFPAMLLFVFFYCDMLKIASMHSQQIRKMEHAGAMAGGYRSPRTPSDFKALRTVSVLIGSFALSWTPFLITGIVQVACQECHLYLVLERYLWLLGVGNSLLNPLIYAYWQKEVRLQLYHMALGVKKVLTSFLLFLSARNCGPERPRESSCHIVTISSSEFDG

GPR119 [2] = target: T1, GPR119; assay: cAMP accumulation in heterologous expression system; PathHunter β-arrestin […] recruitment (EC50 =[…]); type: cell-based

Row | SMILES | cAMP accumulation in heterologous expression system, positive control agonist (GPR119 [1]) | EC50 (GPR119 [2])
1 | CCCCCCCC/C=C\CCCCCCCC(=O)NCCO [OEA] | OEA, the most potent endogenous agonist of GPR119, was used as the positive control. | 
2 | CCCCCC1OC1C/C=C\C/C=C\C/C=C\CCCC(=O)NCCO (centres unmarked) [14,15-EET-EA] |  | 3.74 µM
